Assay results published in patent publication US20100249234A1, “METHODS OF REDUCING VIRULENCE IN BACTERIA” (UWM RESEARCH FOUNDATION, INC., priority 2007, published 2010).

How the values were obtained:
Type in all cases: cell-based, Dickeya dadantii 3937 (Ech3937)
hrpA promoter = hrpA promoter activity, GFP reporter plasmid phrpA, flow cytometry (FACS); conditions: for expression of hrpA, GFP intensity (Mean Fluorescence Intensity), Ech3937 carrying phrpA: MM + 0.1 mM compound
Description: FACS analysis of promoter activity of dspE, hrpA, hrpL, hrpN, and hrpS was carried out as described (Peng et al., 2006). Briefly, the wild-type Ech3937 and the mutant strains carrying the promoter reporter plasmid were grown on LB broth at 28° C. overnight and transferred to appropriate media. For FACS analysis, samples were collected by centrifugation, washed with 1× phosphate buffer saline (PBS) at 13,000 rpm for 1 min, and re-suspended in 1×PBS to ca 10^6 CFU/ml prior to being run in a FACS Calibur flow cytometer (BD Biosciences, CA). Three replicates were performed for each treatment.
To identify potential compounds that repress activation of T3SS, analogs and isomers of TCA and intermediates of salicylic acid and phenypropanoid biosynthesis pathways in plants were further screened for their effect on Ech3937 hrpA expression by flow cytometry (Table 9). A green fluorescent protein (GFP) reporter plasmid phrpA (pProbe-AT derivative with PCR fragment containing hrpA promoter region) was constructed, resulting in a transcriptional fusion of hrpA promoter with GFP gene. Bacterial cells containing phrpA plasmid were grown in MM supplemented with 0.1 mM of each compound. GFP intensity, which is a measurement of hrpA promoter activity, was measured by flow cytometry.

Ech3937 = assay: Growth of Ech3937 in MM supplemented with compound; conditions: 0.05, 0.1 and 0.2 mM in MM (FIGS. 2A, 2B)
Excerpt: Phenolic compounds constitute an important class of organic substances produced by plants. The phenolic compound SA is a signaling molecule that plays a role in host defenses. OCA and TCA are the biosynthetic precursors of SA and are also reported to induce the expression of defense-related genes in plants. OCA, TCA, and SA were examined to elucidate their effects on the expression of T3SS genes. The expression of the T3SS gene hrpN was examined in MM and MM supplemented with OCA, TCA, and SA, at concentrations of 0.05, 0.1, and 0.2 mM, respectively. FIGS. 2A and 2B show the promoter activities of hrpN in Dickeya dadantii 3937 (Ech3937) grown in MM and MM supplemented with 0.05, 0.1, and 0.2 mM OCA, TCA, and SA at 12 h (FIG. 2A) and 24 h (FIG. 2B) post-inoculation. GFP intensity was determined on gated populations of bacterial cells by flow cytometry and analyzed with the Cell Quest software (BD Biosciences, San Jose, Calif.). The growth of Ech3937 in MM supplemented with different concentrations of OCA, TCA and SA was recorded. Compared with MM alone, the average GFP fluorescence intensity of bacterial cells of Ech3937 (phrpN) was increased approximately 4-fold when 0.05 mM of OCA and TCA were added to the medium (FIGS. 2A, 2B).
The expression of the T3SS gene hrpA was further examined in MM and MM supplemented with PCA at concentrations of 0.001, 0.005, 0.01, 0.05 and 0.1 mM respectively. FIGS. 16A and 16B show the promoter activities of hrpA in Dickeya dadantii 3937 (Ech3937) grown in minimum medium (MM) and MM supplemented with different amount of p-coumaric acid (PCA) at 12 h (FIG. 16A) and 24 h (FIG. 16B) post-inoculation. GFP intensity was determined on gated populations of bacterial cells by flow cytometry and analyzed with the Cell Quest software (BD Biosciences, San Jose, Calif.). The growth of Ech3937 in MM supplemented with different concentrations of PCA was recorded. Compared with MM alone, the average GFP fluorescence intensity of bacterial cells of Ech3937 (phrpA) was reduced more than 4-fold when 0.05 and 0.1 mM of PCA were added to the medium (FIGS. 16A, 16B).

hrpN promoter = hrpN promoter activity, GFP reporter plasmid phrpN, flow cytometry (FACS)

| Structure (SMILES) | expression of hrpA, GFP intensity (Mean Fluorescence Intensity), Ech3937 carrying phrpA (hrpA promoter; 6 h (Table 9)) | expression of hrpA, GFP intensity (Mean Fluorescence Intensity), Ech3937 carrying phrpA (hrpA promoter; 12 h (Table 9)) | expression of hrpA, GFP intensity (Mean Fluorescence Intensity), Ech3937 carrying phrpA (hrpA promoter; 24 h (Table 9)) | further results |
| --- | --- | --- | --- | --- |
| O=C(O)[C@@H]1C[C@H]1c1ccccc1 (relative stereo) [trans-2-Phenylcyclopropane-1-carboxylic acid] | 7.2 ± 0.1 | 67.0 ± 18.4 | 84.0 ± 14.3 | – |
| O=C(O)C=Cc1ccccc1Cl [2-Chlorocinnamic acid] | 25.7 ± 0.2 | 166.2 ± 17.8 | 319.8 ± 48.3 | – |
| Cc1ccccc1C=CC(=O)O [2-Methylcinnamic acid] | 22.8 ± 0.6 | 157.2 ± 11.7 | 342.5 ± 16.6 | – |
| OCC=Cc1ccccc1 [Cinnamyl alcohol] | 6.3 ± 0.1 | 27.8 ± 5.0 | 53.8 ± 2.9 | effect on expression of hrpA (screen result) (hrpA promoter; MM + 0.1 mM compound (Table 9)): inhibitors of the expression of hrpA |
| O=C(O)CCc1ccccc1 [Hydrocinnamic acid] | 13.7 ± 1.0 | 200.3 ± 35.8 | 213.5 ± 18.9 | – |
| COC(=O)/C=C/c1ccccc1 [Methyl trans-cinnamate] | 9.7 ± 0.1 | 135.8 ± 8.1 | 219.2 ± 14.5 | – |
| O=C(O)COc1ccccc1 [Phenoxyacetic acid] | 18.0 ± 3.1 | 222.7 ± 64.3 | 205.7 ± 11.8 | – |
| O=C(O)c1ccccc1O [SA, salicylic acid, reference compound] | – | – | – | bacterial growth of Ech3937 in supplemented MM (Ech3937): No reduction of bacterial growth; effect on GFP fluorescence intensity of Ech3937 (phrpN) compared with MM alone (hrpN promoter; 0.05, 0.1 and 0.2 mM in MM, 12 h and 24 h (FIGS. 2A, 2B)): did not result in increased GFP fluorescence intensity; GFP Intensity of Ech3937 (phrpN) (hrpN promoter; MM + 0.2 μM compound, 12 h): 53.7 ± 4.0; GFP Intensity of Ech3937 (phrpN) (hrpN promoter; MM + 0.2 μM compound, 24 h): 105 ± 28; GFP Intensity of Ech3937 (phrpN) (hrpN promoter; MM + 0.5 μM compound, 12 h): 49.5 ± 5.9; GFP Intensity of Ech3937 (phrpN) (hrpN promoter; MM + 0.5 μM compound, 24 h): 99.5 ± 18; GFP Intensity of Ech3937 (phrpN) (hrpN promoter; MM + 5 μM compound, 12 h): 49.9 ± 2.9; GFP Intensity of Ech3937 (phrpN) (hrpN promoter; MM + 5 μM compound, 24 h): 97.7 ± 9.0; GFP Intensity of Ech3937 (phrpN) (hrpN promoter; MM + 10 μM compound, 12 h): 52.0 ± 2.3; GFP Intensity of Ech3937 (phrpN) (hrpN promoter; MM + 10 μM compound, 24 h): 104 ± 3.1 |
| O=C(O)/C=C/c1cccc(O)c1 [m-Coumaric acid] | 12.1 ± 0.0 | 133.0 ± 38.2 | 203.3 ± 9.6 | – |
| O=C(O)/C=C/c1cccnc1 [trans-3-(3-Pyridyl)acrylic acid] | 13.1 ± 0.4 | 184.9 ± 35.6 | 204.0 ± 16.8 | – |
| O=C(O)/C=C/c1c[nH]c2ccccc12 [trans-3-indoleacrylic acid] | 7.9 ± 0.2 | 23.9 ± 1.3 | 121.0 ± 6.2 | – |
